{
  "source": "patent US7368287B2",
  "about": "“Use of L-α-lysophosphatidylcholine to obtain the differentiation of monocytes into mature dendritic cells in vitro” (Biomerieux, priority 2002, dated 2008)",
  "key": {"PPARγ": {"molecular_target": "T1, PPARγ (Homo sapiens, UniProt P37231)", "T1 construct": "After having harvested the cells, the nuclear proteins were extracted with the Nuclear extract Kit (Sigma); endogenous in cells; host or cells: monocytes undergoing differentiation into dendritic cells (nuclear extract)", "T1 sequence (P37231 1-505)": "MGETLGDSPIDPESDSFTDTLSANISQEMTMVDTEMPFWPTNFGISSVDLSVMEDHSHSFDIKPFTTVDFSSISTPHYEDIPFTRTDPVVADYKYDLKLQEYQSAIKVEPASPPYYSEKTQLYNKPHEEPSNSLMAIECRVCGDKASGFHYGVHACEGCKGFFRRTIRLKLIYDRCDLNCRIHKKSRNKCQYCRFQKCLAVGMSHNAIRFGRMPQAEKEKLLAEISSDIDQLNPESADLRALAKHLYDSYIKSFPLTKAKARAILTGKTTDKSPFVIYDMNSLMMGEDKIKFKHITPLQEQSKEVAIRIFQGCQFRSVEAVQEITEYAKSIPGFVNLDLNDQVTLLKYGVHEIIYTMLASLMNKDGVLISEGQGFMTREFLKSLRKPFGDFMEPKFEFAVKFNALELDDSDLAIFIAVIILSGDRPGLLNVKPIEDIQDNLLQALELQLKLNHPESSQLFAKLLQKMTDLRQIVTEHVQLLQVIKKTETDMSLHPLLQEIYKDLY", "test": "PPAR binding activity by gel shift on nuclear proteins of treated monocytes", "format": "cell-based", "description": "Next, the inventors investigated the transcription factors involved in the maturation process induced by LPC. In order to determine whether PPARs are involved in the LPC-induced maturation, the ability of the two transcription factors PPARγ and PPARδ to bind was analyzed using the gel shift technique. 3 isotypes of PPAR nuclear receptors (peroxisome proliferator-activated receptor) exist: α, γ and δ. PPARγs are the targets for molecules of the thiazolidinedione class, such as ciglitizone, used in the treatment of type II diabetes. PPARδs have a broader expression and can be repressors of PPARγs. The monocytes undergoing differentiation were incubated for two hours with a solution of LPC (40 μM) (“LPC” cells). “Control” cells are also obtained in the absence of LPC in the culture medium. After having harvested the cells, the nuclear proteins were extracted with the Nuclear extract Kit (Sigma). The nuclear proteins were then brought into contact with a ratioactively labeled probe containing a response element recognized by PPARs. […] The PPAR binding activity was determined by measuring the intensity of these bands. These activities are expressed as a percentage with respect to the “control” cells. […]\nThe activity of the PPARγ and PPARδ transcription factors was measured in these cells by the gel shift technique, as described above.\nINTRALIPID® regulates PPARs in vitro. […] The cells were harvested after 1 h, 2 h or 8 h of incubation with INTRALIPID®, the nuclear proteins were extracted and the activity of PPARγ and PPARδ was determined as described in example 6.\nSecondly, a solution of INTRALIPID® (50 μg/ml of phospholipids) was added to the culture medium on the 5th day of monocyte differentiation, 15 minutes before the addition of a solution of LPC (40 μM) (“LPC+Intralipid” cells). […] The cells were harvested after 2 h of incubation, the nuclear proteins were extracted and the activity of PPARγ and PPARδ was determined as described in example 6."}, "[1]": {"tested_on": "Gi protein-coupled receptors", "test": "Induction of CD86 by LPC after preincubation with pertussis toxin", "format": "cell-based, human", "details": "LPC cells = 100%; PTX 100 ng/ml for 3 hours before LPC", "description": "(§1) The phenotype of the “control” and “LPC” cells is analyzed by flow cytometry on a FACSCalibur (Becton Dickinson, Francklin Lakes, N.J., USA) using FITC (fluorosceine isothiocyanate)-conjugated anti-CD14, anti-HLA-DR and anti-CD80 and PE (phycoerythrin)-conjugated anti-CD1a, anti-CD83, anti-CD86 and anti-CD40 (Beckman Coulter). According to the state of the art, monocytes preferentially have a CD14+ CD1a− phenotype, immature dendritic cells preferentially have a CD14− CD1a+CD86− phenotype, and mature dendritic cells preferentially have a CD14− CD1a intermediate—CD86+ phenotype.\nInitially, in order to determine whether the receptors involved in the action of LPC in the differentiation of monocytes into mature dendritic cells belonged to the family of G protein-coupled receptors, PTX (pertussis toxin; 100 ng/ml), known to block Gi proteins, was added to the culture medium for 3 hours. The culture medium was then changed and the LPC was added as described in example 1."}, "PAF receptor": {"tested_on": "PAF receptor", "test": "CD86 expression in presence of PAF or of the PAF antagonist BN52021", "format": "cell-based, human", "description": "as §1\nThus, a solution of PAF (Sigma, 5 μM) was added to the culture medium on the 5th day of monocyte differentiation. The expression of CD86 by the “control” cells and by the “LPC” cells, obtained in the presence or in the absence of PAF, was analyzed according to the protocol described in example 2, and the results are given in table 9.\nThus, a solution of the PAF antagonist BN52021 (Biomol, Plymouth Meeting, USA, 100 μM) was added to the culture medium on the 5th day of monocyte differentiation. The expression of CD86 by the “control” and “LPC” cells, obtained in the presence or in the absence of BN52021, was analyzed according to the protocol described in example 2, and the results are given in table 10."}},
  "data": [
    {"substance": "L-α-lysophosphatidylcholine [LPC]", "values": [
      {"measurement": "PPARγ binding activity", "setting": "PPARγ; Table 6, LPC 40 μM, two hours, percentage with respect to control cells", "result": 0, "unit": "%"},
      {"measurement": "PPARγ activity", "setting": "PPARγ; Table 16, Intralipid 50 μg/ml phospholipids 15 minutes before LPC 40 μM, 2 h, control = 100%", "result": 1, "unit": "%"},
      {"measurement": "Induction of CD86", "setting": "[1]", "result": 100, "unit": "%"},
      {"measurement": "Expression of CD86", "setting": "PAF receptor; LPC cells = 100%, BN52021 100 μM added on 5th day", "result": 100, "unit": "%"},
      {"measurement": "Expression of the CD86 marker (mean fluorescence intensity)", "setting": "PAF receptor; PAF 5 μM and/or LPC added on 5th day", "result": 287.11},
      {"measurement": "Increase in the expression of CD86", "setting": "PAF receptor; versus control cells, PAF 5 μM and/or LPC", "result": 470, "unit": "%"}
    ]}
  ]
}
